Measured values: ChEMBL document CHEMBL5260836, “Combating Autoimmune Diseases With Retinoic Acid Receptor-Related Orphan Receptor-γ (RORγ or RORc) Inhibitors: Hits and Misses” (J Med Chem, 2018)
≈ marks a conversion by molar mass, not a printed value.

Experiments:
[1] = species: Homo sapiens; experiment: Ex-vivo reduction in proinflammatory cytokine levels in psoriasis patient assessed as reduction in IL-22 level in skin tissue at 10 uM measured after 12 to 14 hrs by sRICA assay; format: functional; settings: Skin of body, time 12-14 hrs
[2] = cells; settings: Homo sapiens, PBMC
[3] = species: Homo sapiens; experiment: Ex-vivo reduction in proinflammatory cytokine levels in psoriasis patient assessed as reduction in IL-19 level in skin tissue at 10 uM measured after 12 to 14 hrs by sRICA assay; format: functional; settings: Skin of body, time 12-14 hrs
[4] = tested on: Mus musculus; experiment: Anti-inflammatory activity against psoriasis mouse model assessed as reduction in epidermal thickness treated topically; format: functional
[5] = species: Homo sapiens; experiment: Ex-vivo reduction in proinflammatory cytokine levels in psoriasis patient assessed as reduction in IL-17A level in skin tissue at 10 uM measured after 12 to 14 hrs by sRICA assay; format: functional; settings: Skin of body, time 12-14 hrs
[6] = Inhibition of SRC1 coactivator recruitment in human PBMC; format: functional, cell-based
[7] = species: Homo sapiens; experiment: Ex-vivo reduction in proinflammatory cytokine levels in psoriasis patient assessed as reduction in IL-17F level in skin tissue at 10 uM measured after 12 to 14 hrs by sRICA assay; format: functional; settings: Skin of body, time 12-14 hrs
[8] = molecular target: T1, Nuclear receptor ROR-gamma (Homo sapiens, UniProt P51449); experiment: Inverse agonist activity at GAL4-RORgammat LBD (unknown origin) expressed in HEK293 cells measured after 18 to 24 hrs by nuclear receptor assay; format: cell-based
T1 sequence (P51449 whole entry): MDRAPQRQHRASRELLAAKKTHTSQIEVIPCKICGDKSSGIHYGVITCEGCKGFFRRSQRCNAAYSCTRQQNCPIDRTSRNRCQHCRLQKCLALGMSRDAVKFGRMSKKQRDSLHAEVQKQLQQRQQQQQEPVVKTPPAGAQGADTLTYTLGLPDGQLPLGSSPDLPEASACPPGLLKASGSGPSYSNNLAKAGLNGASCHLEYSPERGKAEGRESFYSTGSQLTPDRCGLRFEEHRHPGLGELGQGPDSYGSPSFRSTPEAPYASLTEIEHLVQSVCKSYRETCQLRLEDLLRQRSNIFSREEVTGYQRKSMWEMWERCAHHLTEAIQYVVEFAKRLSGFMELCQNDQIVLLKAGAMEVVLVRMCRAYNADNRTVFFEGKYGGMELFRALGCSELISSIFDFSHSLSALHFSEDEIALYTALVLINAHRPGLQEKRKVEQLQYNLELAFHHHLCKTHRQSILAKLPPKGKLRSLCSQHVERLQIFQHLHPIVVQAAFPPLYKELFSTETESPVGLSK

[9] = molecular target: T1, Nuclear receptor ROR-gamma; experiment: Inhibition of biotinylated human RORgammat by FRET assay
[10] = cells; settings: Homo sapiens, Th17
[11] = Inhibition of IL-17 production in human PBMC isolated from COPD patients measured after 72 hrs by ELISA based assay; format: functional, cell-based
[12] = Inhibition of IL-17 production in human BAL cells isolated from COPD patients measured after 72 hrs by ELISA based assay; format: functional; settings: Bronchoalveolar lavage cell
[13] = molecular target: T1, Nuclear receptor ROR-gamma; experiment: Inhibition of human GAL4-fused RORgamma LBD transfected in HEK293T cell measured after 24 hrs by luciferase reporter assay; format: cell-based
[14] = molecular target: T1, Nuclear receptor ROR-gamma; experiment: Inverse agonist activity at human GAL4-RORgamma […] expressed in HEK293 cells measured after 24 hrs by ligand binding assay; format: cell-based
[15] = Plasma clearance in rat; format: ADME
[16] = Inhibition of IL-21 production in human PBMC by ELISA; format: functional, cell-based
[17] = Inhibition of IL-22 production in human PBMC by ELISA; format: functional, cell-based
[18] = Inhibition of IL-17A production in human PBMC by ELISA; format: functional, cell-based
[19] = Inhibition of IL-17F production in human PBMC by ELISA; format: functional, cell-based
[20] = Inhibition of IL-17 production in human Th17 cells relative to control; format: functional
[21] = molecular target: T2, Nuclear receptor ROR-gamma (Homo sapiens) (UniProt P51449); experiment: Inhibition of human RORgamma by TR-FRET assay relative to control
T2 sequence (whole entry): T1 sequence (P51449 whole entry)

[22] = molecular target: T1, Nuclear receptor ROR-gamma; experiment: Inhibition of human RORgammat expressed in COS7 cells by luciferase assay; format: cell-based
[23] = Inhibition of human Th17 cell differentiation; format: functional, cell-based
[24] = molecular target: T1, Nuclear receptor ROR-gamma; experiment: Inhibition of GAL4-RORgammat LBD (unknown origin); format: cell-based, HEK293
[25] = molecular target: hERG (KCNH2) (Homo sapiens, UniProt Q12809); experiment: Inhibition of human ERG at 3 uM relative to control; format: toxicity
hERG (KCNH2), sequence (Q12809 whole entry): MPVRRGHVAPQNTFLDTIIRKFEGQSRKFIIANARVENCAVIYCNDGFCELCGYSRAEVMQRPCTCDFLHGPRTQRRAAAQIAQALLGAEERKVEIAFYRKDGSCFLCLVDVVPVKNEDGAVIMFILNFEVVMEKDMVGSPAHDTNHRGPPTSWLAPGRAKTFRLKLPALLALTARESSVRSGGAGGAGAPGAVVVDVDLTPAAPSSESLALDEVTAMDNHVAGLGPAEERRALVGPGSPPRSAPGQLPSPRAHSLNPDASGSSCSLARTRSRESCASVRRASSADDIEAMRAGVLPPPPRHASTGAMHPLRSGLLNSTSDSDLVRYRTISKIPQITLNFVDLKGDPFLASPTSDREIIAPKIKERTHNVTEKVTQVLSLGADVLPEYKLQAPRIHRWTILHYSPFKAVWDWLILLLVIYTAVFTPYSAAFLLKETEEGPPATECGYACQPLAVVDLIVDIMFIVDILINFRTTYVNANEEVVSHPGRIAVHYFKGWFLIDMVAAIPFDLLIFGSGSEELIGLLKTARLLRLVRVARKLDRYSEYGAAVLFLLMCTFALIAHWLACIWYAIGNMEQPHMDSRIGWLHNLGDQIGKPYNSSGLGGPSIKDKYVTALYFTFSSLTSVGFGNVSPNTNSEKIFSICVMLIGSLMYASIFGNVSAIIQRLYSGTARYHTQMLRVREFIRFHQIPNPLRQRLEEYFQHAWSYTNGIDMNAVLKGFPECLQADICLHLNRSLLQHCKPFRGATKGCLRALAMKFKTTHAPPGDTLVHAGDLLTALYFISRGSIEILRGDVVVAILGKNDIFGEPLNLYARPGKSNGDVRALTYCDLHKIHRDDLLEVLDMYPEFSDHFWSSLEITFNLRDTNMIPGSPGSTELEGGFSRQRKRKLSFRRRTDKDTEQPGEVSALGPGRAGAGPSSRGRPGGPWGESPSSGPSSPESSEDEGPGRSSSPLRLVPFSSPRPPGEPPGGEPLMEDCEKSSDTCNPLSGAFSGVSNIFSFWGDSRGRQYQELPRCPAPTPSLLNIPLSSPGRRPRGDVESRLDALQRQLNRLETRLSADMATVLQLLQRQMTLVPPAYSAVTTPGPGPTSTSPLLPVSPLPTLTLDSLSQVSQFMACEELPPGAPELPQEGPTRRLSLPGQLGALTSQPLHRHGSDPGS

[26] = tested on: Mus musculus; experiment: Anti-arthritis activity against collagen-induced arthritis DBA/1Lacj mouse model assessed as arthritis clinical score at 10 mg/kg, po twice daily from day 21 to 35 relative to control; format: functional; settings: 504 h
[27] = tested on: Mus musculus; experiment: Anti-arthritis activity against collagen-induced arthritis DBA/1Lacj mouse model assessed as arthritis clinical score at 60 mg/kg, po twice daily from day 21 to 35 relative to control; format: functional; settings: 504 h
[28] = Inhibition of IL-17A production in human PBMC derived from rheumatoid arthritis; format: functional, cell-based
[29] = tested on: Mus musculus; experiment: Anti-arthritis activity against collagen-induced arthritis DBA/1Lacj mouse model assessed as arthritis clinical score at 30 mg/kg, po twice daily from day 21 to 35 relative to control; format: functional; settings: 504 h
[30] = Unbound fraction in human plasma; format: ADME, cell-free
[31] = Oral bioavailability in rat; format: ADME, organism-based; settings: in vivo
[32] = Solubility of the compound; format: physicochemical
[33] = Oral bioavailability in dog; format: ADME, organism-based, Canis lupus familiaris; settings: in vivo

`CCc1ccc(N(CC(C)C)S(=O)(=O)c2ccc(OCC3CCOCC3)c(CO)c2)cc1` [GSK2981278] showed an inhibition in vivo at 10 µM [1] of over 50%, an IC50 [2] of 63 nM and an inhibition in vivo at 10 µM [3] of over 50%. The “inhibition (INH)” value [4] was 23%, the inhibition in vivo at 10 µM [5] was over 50% and the IC50 [6] was 20 nM. It also gave an inhibition in vivo at 10 µM [7] of over 50%.
Work on `Cc1ccc([C@H](NC(=O)Cc2ccc3oc([C@@H](O)c4c(C)noc4C)cc3c2)c2ccccc2)c(C)c1` yielded an IC50 [8] of 17 nM and an IC50 [9] of 5 nM.
With `C[C@H]1CCCCN1C(=O)c1nc(C(=O)NCC(C)(C)O)sc1-c1cnc(NCC(C)(C)C)cc1C(F)(F)F` the IC50 [10] was 2.8 nM.
In the case of `CCn1c(C(C)(C)Oc2ccc(F)cc2F)nc2cc(NC(=O)Cc3ccc(S(=O)(=O)CC)cc3)ccc21`, the IC50 [11] is reported as 147 nM and the IC50 [12] is reported as 350 nM.
In the case of `CCS(=O)(=O)c1ccc(CNc2nc3c(C)nc(-c4c(C)ncnc4C4CC4)nc3n([C@@H](C)C3CC3)c2=O)nc1`, the IC50 [13] is reported as 60 nM.
With `O=C(O)CC1CN(Cc2ccc(-c3ccc(C(O)(C(F)(F)F)C(F)(F)F)cc3)cc2)CCN1Cc1ccncc1` (configuration not stated) the IC50 [14] was over 10000 nM.
Work on `O=C(O)c1ccc(-c2nn(C(=O)c3c(Cl)cccc3C3(C(F)(F)F)CC3)c3cccnc23)c(F)c1` yielded a clearance [15] of 5 mL/min/kg.
With `O=S(=O)(c1ccc(Cl)cc1)N1CCC(Cn2ccc3cc(-c4cn[nH]c4)ccc32)CC1` the IC50 [16] was under 10000 nM, the IC50 [17] was under 10000 nM and the IC50 [18] was under 10000 nM. For the same molecule, the IC50 [19] was under 10000 nM.
Molecule `O=C(Nc1ccc2c(c1)CN(S(=O)(=O)c1cccc(C(F)(F)F)c1)CCO2)c1c(F)cccc1Cl` has an IC50 [10] of 180 nM, an Efficacy [20] of -73% and an Efficacy [21] of -69%.
`O=S(=O)(c1ccccc1)N1CCC(Cn2ccc3nc(-c4cn[nH]c4)ccc32)CC1` showed an IC50 [16] of under 10000 nM, an IC50 [17] of under 10000 nM and an IC50 [18] of under 10000 nM. The IC50 [19] was under 10000 nM.
Work on `Cc1ncc(C(=O)Nc2cc(F)cc(CN3CCN(C(=O)C4CCCC4)[C@@H](C)C3)c2C)cn1` yielded an IC50 [22] of 97 nM and an IC50 [23] of 31 nM.
`Cc1cc(C(F)(F)F)cc2c1cc(Cc1c(Cl)ccc(C(=O)N3CCN(C4COC4)CC3)c1Cl)n2C` gave an IC50 [24] of under 100 nM.
`CC[C@H]1c2ncc(C(=O)N[C@@H](CO)c3ccc(S(=O)(=O)CC)cn3)cc2CN1C[C@H]1CC[C@H](C(F)(F)F)CC1` showed an inhibition at 3 µM [25] of 7.7%.
In the case of `COc1nc2ccc([C@](O)(c3ccc(C)nc3C)c3cnnn3C)cc2c(Cl)c1Cc1ccc(C(F)(F)F)cc1`, the inhibition in vivo at 10 mg/kg [26] is reported as 32%, the inhibition in vivo at 60 mg/kg [27] is reported as 78% and the IC50 [28] is reported as 5 nM. For the same molecule, the inhibition in vivo at 30 mg/kg [29] was 46%.
With `CC(=O)N1Cc2cc(S(C)(=O)=O)ccc2[C@@H]1C(=O)Nc1ccc(C(O)(C(F)(F)F)C(F)(F)F)cc1` the fraction unbound [30] was 0.16, the bioavailability [31] was 34% and the solubility [32] was 380 µM (≈ 199 µg/mL). For the same molecule, the bioavailability [33] was 96%.
Molecule `O=S(=O)(c1ccccc1)N1CCC(Cn2ncc3cc(-c4cn[nH]c4)ccc32)CC1` has an IC50 [16] of under 10000 nM, an IC50 [17] of under 10000 nM and an IC50 [18] of under 10000 nM. It also gave an IC50 [19] of under 10000 nM.
